Results as given in US20060039937A1, “Composition having antioxidant properties” (priority 2003, published 2006).
Converted amounts (≈) assume the structure as drawn. “Also recorded” adds a separate entry of the source. One block for each compound: values may come before it.

Tests used:
[1] = DPPH assay (free-radical scavenging); type: biochemical; conditions: for AE (×10^−3): anti-free-radical efficiency from EC50 and TEC50; for TEC50: reaction time necessary to achieve EC50; for DPPH free-radical scavenging: amount of antioxidant (in mg) needed to inhibit 1 mmol of DPPH; for antioxidative action (DPPH test), in words: comparison with vitamin C
Method: In the presence of a free-radical scavenger, the electron is paired, the absorption disappears, and the decoloration proceeds stoichiometrically taking into account the electrons taken up. The absorbance is measured in a photometer, The anti-free-radical property of the substance to be tested is determined by measuring the concentration at which 50% of the 2,2-diphenyl-1-picrylhydrazyl employed has reacted with the free-radical scavenger. This concentration is expressed as EC50, a value which can be considered to be a property of the substance under the given measurement conditions. […] The EC50 value here is a measure of the capacity of the respective compound to scavenge free radicals. The lower the EC50 value, the higher the capacity to scavenge free radicals. […] A further important aspect for the action of the antioxidants is the time in which this EC50 value is reached. This time, measured in minutes, gives the TEC50 value, which allows a conclusion to be drawn on the rate at which these antioxidants scavenge free radicals. The anti-free-radical efficiency (AE) (described in C. Sanchez-Moreno, J. A. Larrauri and F. Saura-Calixto in J. Sci. […] Aliquots of this solution are mixed with various concentrations of the compound to be tested. […] The lower this value, the higher the corresponding antioxidant activity. The reaction time necessary to achieve this value is indicated in the value TEC50 (in minutes). The anti-free-radical efficiency (AE) is obtained from this in accordance with the following relationship: [formula] A higher AE value here indicates a higher activity against free radicals.

tyrosinase = assay: Tyrosinase activity test with substrate L-tyrosine; type: biochemical; conditions: tyrosinase 10 units, L-tyrosine 4 mM, 37° C., 1 hour, OD 450 nm
Method: Tyrosinase is the key enzyme in the synthesis of melanin. Substances which inhibit tyrosinase activity are therefore suitable as skin-lightening active ingredients. The action is also investigated with L-tyrosine as substrate and compared with that of reference substances. The substances and tyrosinase (10 units) are pre-incubated on ice for 10 minutes; tyrosine is then added (final concentration 4 mM), and the plates are incubated at 37° C. for 1 hour. The optical density at each test point is measured at 450 nm against the corresponding control without enzyme.

[2] = Storage stability / hydrolysis of ASG I in EtOH:H2O solution; type: physicochemical
Method: The reducing action of each substance (DPPH test) as a function of time is investigated and expressed as the amount of substance in mg required to inhibit 1 mmol of the DPPH free radical (FIG. 1).
Under storage conditions (90 days at 40° C., 1 mol-percent solution in EtOH:H2O), only 50% of the initial concentration of ASG I is retained after 30 days.

[3] = Lipid assay (ABAP-induced oxidation of linoleic acid in SDS micelles); type: biochemical; conditions: for Standardised to tocopherol (relative antioxidative efficiency, RAE): % inhibition standardised to tocopherol; for AE/20 min: absorbance change at 236 nm, Reference 0.4567; for Lipid test: comparative experiment, standardised to tocopherol; for % inhibition: inhibition of linoleic acid oxidation versus reference
Method: ABAP, which is water-soluble per se, is dispersed in SDS micelles. Linoleic acid (cis,cis-9,12-octadecadienoic acid) is likewise dispersed in SDS micelles. The free radicals cause the oxidation of linoleic acid to the isomer having conjugated double bonds. The formation of the conjugated double bond can be determined through the increase in the absorbance at 236 nm. The ability of the antioxidant to inhibit the rate of formation is determined relative to the tocopherol standard (in accordance with: Pryor, W. A., Cornicelli, […]., & Wu, M. (1993) A rapid screening test to determine the antioxidant potencies of natural and synthetic antioxidants. J Org Chem, 58, 3521-3532).

[4] = Time dependence of the antioxidative activity (DPPH test after storage); conditions: 1 mol % solution in EtOH:H2O 1:1, storage for 90 days at 40° C.
[5] = TEAC assay (ABTS radical cation decolorisation); type: biochemical; conditions: comparative experiment with starting substances
Method: This free-radical cation has absorption maxima at 645 nm, 734 nm and 815 nm. The addition of an antioxidant to the ABTS free-radical cation results in reduction to ABTS. The magnitude of this conversion depends on the activity and concentration of the antioxidant and on the duration of the reaction. The reduction is evident from the decrease in absorbance, and the percentage of reduced ABTS is determined as a function of concentration and time and calculated relative to the reactivity of trolox (TEAC). […] This method can be used for the determination of antioxidants which are soluble in water or organic solvents (according to: Re, […]., Yang, M., & Rice, E. C. (1999) Antioxidant activity applying an improved ABTS radical cation decolorisation assay. Free Radical Biology and Medicine, 26, 1231-1237). The absorbance values measured after six minutes are used. The percentage of reduced ABTS is plotted against the concentration of the active ingredient (ASG I from Example 1 or trolox), and the slope of the lines is determined. In order to determine the TEAC value of ASG I, […].

[6] = no shift in absorbance of the complex induced by N3^−
[7] = Rancimat assay (oxidation stability of soya oil); conditions: for Protection factor: 0.1% by weight in 4 g of soya oil at 120° and 15 l of air/h
Source text: The Rancimat method for determination of the oxidation stability of fats and oils is known from the literature (Läubli M. W., Bruttel P. A.: “Determination of the oxidation stability of fats and oils—comparison between the active oxygen method (AOCS Cd 12-57) and the Rancimat method”, Fat. Sci. Technol. 90; 56-58 (1988); or Metrohm “Application Bulletin” Metrohm, No. 232/1 d, “Determination of the antioxidant activity by the Rancimat method”; handbook: “Rancimat 679”, Metrohm, instrument for the determination of oxidation and thermal stability, use instructions 8.679.1001, Metrohm AG, CH-9100 Herisau (Switzerland)).

[8] = test described in Gan, Seib 1998; cited from earlier work
[9] = Hypoxanthine-xanthine oxidase test (superoxide scavenging, NBT reduction); type: biochemical; conditions: value at which 50% of the original superoxide free-radical anion concentration is still present
Method: Superoxide Free-Radical Anion Scavenging Efficiency of ASG I (Hypoxanthine-Xanthine Oxidase Test) Reaction of fresh xanthine oxidase with hypoxanthine in the presence of EDTA in aqueous solution gives superoxide free-radical anions. The free-radical anions are determined spectrophotometrically via the reduction of nitroblue tetrazolium (NBT) to nitroblue diformazan. The reduction is evident from the […] in the absorption band at 560 nm. […] The IC50 is the value at which 50% of the original superoxide free-radical anion concentration is still present. The lower this value, the higher the corresponding antioxidant activity.

Compound: O=c1c(O)c(-c2ccc(O)c(O)c2)oc2cc(O)cc(O)c12 [3,5,7,3′,4′-Pentahydroxyflavone, reference compound]
AE (×10^−3) [1]: 83 ×10^−3 | TEC50 [1]: 120 min

Compound: O=C1O[C@H]([C@@H](O)COC(=O)c2cc(O)c(O)c(O)c2)C(O)=C1O [ASG I, L-ascorbyl 6-gallate]
IC50 (tyrosinase): 0.109 mM | initial concentration retained ([2]; 1 mol-percent solution in EtOH:H2O, 40° C., after 30 days): 50% | stability, in words ([2]; pure substance versus aqueous solution): stable as the pure substance; also recorded: undergo hydrolysis in aqueous solution | Standardised to tocopherol (relative antioxidative efficiency, RAE) [3]: 0.69 | activity relative to tocopherol ([3]; RAE expressed as percent of the activity of tocopherol): 69% | AE/20 min [3]: 0.1594 | Lipid test [3]: 0.69 | % inhibition [3]: 65.1% | DPPH free-radical scavenging [1]: 54 mg | AE (×10^−3) [1]: 69.4 ×10^−3 | antioxidative action (DPPH test), in words [1]: significantly greater antioxidative action than vitamin C or derivatives thereof | TEC50 [1]: 180 min | antioxidative action after storage (DPPH test) [4]: retained | TEAC [5]: 3.65 | complex formation with Fe^3+ [6]: strong complex-forming properties | Protection factor ([7]; dissolved in ethanol): 3.07 | Protection factor ([7]; substance added pure): 1.22 | solubility in soya oil ([7]; pure substance in soya oil, Rancimat test): only dissolves partially | effectiveness as antioxidant, in words [8]: less effective than propyl gallate, but more effective than L-ascorbic acid or L-ascorbyl palmitate | IC50 [9]: 9.3 µg/mL (≈ 28.3 µM)

Compound: CCCCCCCCCCCCCCCC(=O)OC[C@H](O)[C@H]1OC(=O)C(O)=C1O [Ascorbyl palmitate, 6-ascorbyl palmitate, reference compound]
DPPH free-radical scavenging [1]: 211 mg | antioxidative action after storage (DPPH test) [4]: lose their antioxidative action | Protection factor ([7]; substance added pure): 2.01

Compound: O=C(O)c1cc(O)c(O)c(O)c1 [Gallic acid, reference compound]
Lipid test [3]: 0.37 | TEAC [5]: 2.76

IC50 (tyrosinase): 33.1 mM
Compound: O=C1O[C@H]([C@@H](O)CO)C([O-])=C1OP(=O)([O-])[O-].O=C1O[C@H]([C@@H](O)CO)C([O-])=C1OP(=O)([O-])[O-].[Mg+2].[Mg+2].[Mg+2] [MAP, magnesium ascorbyl phosphate, reference compound]
DPPH free-radical scavenging [1]: >1000 mg

Compound: COc1cc(C(=O)OC[C@H](O)[C@H]2OC(=O)C(O)=C2O)cc(OC)c1O [Substance 2, L-ascorbyl 6-O-(4-hydroxy-3,5-dimethoxy)benzoate]
DPPH free-radical scavenging [1]: 185 mg | antioxidative action (DPPH test), in words [1]: virtually the same reducing action as vitamin C

Compound: O=C1O[C@H]([C@@H](O)COC(=O)c2ccc(O)c(O)c2)C(O)=C1O [Substance 3, L-ascorbyl 6-O-(3,4-dihydroxy)benzoate]
DPPH free-radical scavenging [1]: 56 mg | antioxidative action (DPPH test), in words [1]: great antioxidative action

Compound: O=C1O[C@H]([C@@H](O)COC(=O)c2ccc(O)cc2)C(O)=C1O [Substance 4, L-ascorbyl 6-O-(4-hydroxy)benzoate]
DPPH free-radical scavenging [1]: 185 mg | antioxidative action (DPPH test), in words [1]: virtually the same reducing action as vitamin C

Compound: COc1ccc(C(=O)OC[C@H](O)[C@H]2OC(=O)C(O)=C2O)cc1 [Substance 5, L-ascorbyl 6-O-(4-methoxy)benzoate]
DPPH free-radical scavenging [1]: 161 mg | antioxidative action (DPPH test), in words [1]: virtually the same reducing action as vitamin C

Compound: O=C1O[C@H]([C@@H](O)COC(=O)c2cccc(O)c2)C(O)=C1O [Substance 6, L-ascorbyl 6-O-(3-hydroxy)benzoate]
DPPH free-radical scavenging [1]: 193 mg

Compound: COc1cccc(C(=O)OC[C@H](O)[C@H]2OC(=O)C(O)=C2O)c1 [Substance 7, L-ascorbyl 6-O-(3-methoxy)benzoate]
DPPH free-radical scavenging [1]: >1000 mg

Compound: Cc1c(C)c2c(c(C)c1O)CCC(C)(CCCC(C)CCCC(C)CCCC(C)C)O2 (centres unmarked) [Tocopherol, reference compound]
Standardised to tocopherol (relative antioxidative efficiency, RAE) [3]: 1.00 | AE/20 min [3]: 0.0242 | % inhibition [3]: 94.7% | AE (×10^−3) [1]: 64.1 ×10^−3 | TEC50 [1]: <60 min

IC50 [9]: 388 µg/mL (≈ 1550 µM)
Compound: Cc1c(C)c2c(c(C)c1O)CCC(C)(C(=O)O)O2 (centres unmarked) [Trolox]

Compound: O=C1O[C@H]([C@@H](O)CO)C(O)=C1O [Vitamin C, ascorbic acid, reference compound]
Lipid test [3]: 0.09 | DPPH free-radical scavenging [1]: 102 mg | AE (×10^−3) [1]: 61.72 ×10^−3 | TEC50 [1]: <60 min | antioxidative action after storage (DPPH test) [4]: lose their antioxidative action | TEAC [5]: 1 | IC50 [9]: 25.5 µg/mL (≈ 145 µM)

Compound: Cc1c(C)c2c(c(C)c1O)CCC(C)(CCCC(C)CCCC(C)CCCC(C)C)O2 (centres unmarked) [Vitamin E, reference compound]
Protection factor ([7]; substance added pure): 0.94
